These results are taken from PubChem BioAssay AID624394 (The Scripps Research Institute Molecular Screening Center, 2012).

The target in the experiment is Photoreceptor-specific nuclear receptor (Homo sapiens) (UniProt Q9Y5X4). Briefly: concentration-response of NR2E3 activators – cell-based, luminescence, luciferase reporter, dose response (AID 624394).
Chain of Photoreceptor-specific nuclear receptor (Homo sapiens) (Q9Y5X4 whole entry, looked up): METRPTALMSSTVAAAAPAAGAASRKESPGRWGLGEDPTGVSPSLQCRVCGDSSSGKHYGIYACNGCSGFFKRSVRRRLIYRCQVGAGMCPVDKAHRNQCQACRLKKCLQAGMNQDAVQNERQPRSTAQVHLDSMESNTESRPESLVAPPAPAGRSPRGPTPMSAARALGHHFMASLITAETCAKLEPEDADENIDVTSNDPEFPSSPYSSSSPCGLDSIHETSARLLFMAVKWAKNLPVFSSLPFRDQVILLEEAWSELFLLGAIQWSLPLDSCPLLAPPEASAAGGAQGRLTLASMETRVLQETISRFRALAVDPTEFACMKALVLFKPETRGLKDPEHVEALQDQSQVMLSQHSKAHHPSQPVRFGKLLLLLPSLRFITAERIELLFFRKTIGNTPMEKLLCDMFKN

Regarding `CCOP(=O)(CCP(=O)(OCC)OCC)OCC.C[CH2][Sn]([Cl])([Cl])[CH2]C`, the IC50 (usually the concentration needed to halve the response being measured) is 478 nM.
